Columns and labels:
KMT9 [1] = biological target: T1, KMT9 (Homo sapiens, UniProt Q9Y5N5); experiment: Microscale thermophoresis (MST) KMT9 binding; settings: microscale thermophoresis, His-tag labelled KMT9 (20 nM); read-out: MST
T1 sequence (Q9Y5N5 1-214): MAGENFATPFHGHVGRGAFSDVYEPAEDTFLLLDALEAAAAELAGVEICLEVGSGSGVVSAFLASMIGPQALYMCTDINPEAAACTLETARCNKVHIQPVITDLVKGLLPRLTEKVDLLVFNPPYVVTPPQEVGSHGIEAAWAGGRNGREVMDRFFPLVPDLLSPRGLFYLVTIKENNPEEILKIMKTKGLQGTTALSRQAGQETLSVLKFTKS
T1 sequence (Q9UI30 1-120 isoform Q9UI30-2 partner): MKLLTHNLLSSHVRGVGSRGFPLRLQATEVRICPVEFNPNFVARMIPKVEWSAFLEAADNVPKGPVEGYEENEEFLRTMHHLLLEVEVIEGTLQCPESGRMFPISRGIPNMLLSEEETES
In short: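 His-tagged KMT9 (20 nM), RED-Tris-NTA labelled, titrated with varying compound concentrations in 25 mM HEPES pH 7.5, 100 mM NaCl, 1 mM DTT, 0.05% Tween. MST at 40% MST and 100% LED power, Nano-RED excitation; Kd binned A ≤10 nM, B 10–100, C 100–1000, D >1000 nM.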

KMT9 [2] = biological target: T1, KMT9; experiment: KMT9 thermal shift assay (SyproOrange); assay type: binding; settings: ΔTm; 500 µM compound, 2 μM KMT9, 5X SO; read-out: Thermal shift
In short: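 Recombinant KMT9 was incubated with compound and SyproOrange at 25° C in 50 mM BTP pH 8.5, 1 mM MgCl2, 1 mM DTT. It was then heated from 20° C to 95° C at 1° C per 15 s with fluorescence read each step. Tm came from a Boltzmann sigmoidal fit; ΔTm relative to DMSO control, binned in 5 K ranges.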

KMT9 [3] = biological target: T1, KMT9; experiment: KMT9 methyltransferase inhibition assay, 3H-SAM scintillation (entries 1-154); assay type: biochemical; settings: entries 1-154: 3H-SAM assay, 25 nM KMT9, 5 μM ETF1
In short: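 Final 25 nM KMT9, 5 μM ETF1 (residues 140-275), 0.3 μM 3H-SAM plus 0.7 μM SAM in pH 8.5 BTP buffer, 2 h at 30° C. TCA-quenched, filter-washed, methylation counted by scintillation; % inhibition vs DMSO and no-enzyme controls, IC50 from four-parameter fit.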

## CNc1ncnc2c1ccn2[C@@H]1C[C@H](CN(CCCNCCc2ccccc2)c2cncs2)[C@@H](O)[C@H]1O [439 (311), (1R,2S,3R,5R)-3-(4-(Methylamino)-7H-pyrrolo[2,3-d]pyrimidin-7-yl)-5-(((3-(phenethylamino)propyl)(thiazol-5-yl)amino)methyl) cyclopentane-1,2-diol]
KMT9 [1]
  Kd: > 1 µM
KMT9 [2]
  ΔTm at 500 µM: ≤ 10 °C
KMT9 [3]
  IC50: 1 to 10 µM

## CNc1ncnc2c1ccn2[C@@H]1C[C@H](CN(CCCNCCc2ccccc2)c2ccccc2)[C@@H](O)[C@H]1O [440 (312), (1R,2S,3R,5R)-3-(4-(Methylamino)-7H-pyrrolo[2,3-d]pyrimidin-7-yl)-5-(((3-(phenethylamino)propyl)(phenyl)amino)methyl)cyclopentane-12-diol]
KMT9 [1]
  Kd: > 1 µM
KMT9 [2]
  ΔTm at 500 µM: ≤ 10 °C
KMT9 [3]
  IC50: > 10 µM

## CNc1ncnc2c1ccn2[C@@H]1C[C@H](CN(CCCNCCc2ccccc2)c2cnn(C)c2)[C@@H](O)[C@H]1O [441 (313), (1S,2R,3R,5R)-3-(((1-Methyl-1H-pyrazol-4-yl)(3-(phenethylamino)propyl)amino)methyl)-5-(4-(methylamino)-7H-pyrrolo[2,3-d]pyrimidin-7-yl) cyclopentane-1,2-diol]
KMT9 [1]
  Kd: > 1 µM
KMT9 [2]
  ΔTm at 500 µM: ≤ 10 °C
KMT9 [3]
  IC50: > 10 µM

## CNc1ncnc2c1ccn2[C@@H]1C[C@H](CN(CCCNCCc2ccccc2)c2cn[nH]c2)[C@@H](O)[C@H]1O [442 (314), (1R,2S,3R,5R)-3-(4-(Methylamino)-7H-pyrrolo[2,3-d]pyrimidin-7-yl)-5-(((3-(phenethylamino)propyl)(1H-pyrazol-4-yl)amino)methyl) cyclopentane-1,2-diol]
KMT9 [1]
  Kd: 0.1 to 1 µM
KMT9 [2]
  ΔTm at 500 µM: 10 to 15 °C
KMT9 [3]
  IC50: 1 to 10 µM

## CNc1ncnc2c1ccn2[C@@H]1C[C@H](CN(CCCNCCc2ccccc2)c2ccn(C)n2)[C@@H](O)[C@H]1O [443 (315), (1R,2S,3R,5R)-3-[4-(Methylamino)pyrrolo[2,3-d]pyrimidin-7-yl]-5-{[(1-methylpyrazol-3-yl)({3-[(2-phenylethyl)amino]propyl})amino]methyl}cyclopentane-1,2-diol]
KMT9 [1]
  Kd: > 1 µM
KMT9 [2]
  ΔTm at 500 µM: ≤ 10 °C
KMT9 [3]
  IC50: > 10 µM

## CNc1ncnc2c1ccn2[C@@H]1C[C@H](CN(CCCNCCc2ccccc2)c2cc[nH]n2)[C@@H](O)[C@H]1O [444 (316)]
KMT9 [1]
  Kd: > 1 µM
KMT9 [2]
  ΔTm at 500 µM: ≤ 10 °C
KMT9 [3]
  IC50: 1 to 10 µM

## CNc1ncnc2c1ccn2[C@@H]1C[C@H](CN2CCC23CNC3)[C@@H](O)[C@H]1O [445 (317), (1S,2R,3R,5R)-3-((1,6-Diazaspiro[3.3]heptan-1-yl)methyl)-5-(4-(methylamino)-7H-pyrrolo[2,3-d]pyrimidin-7-yl) cyclopentane-1,2-diol]
KMT9 [1]
  Kd: > 1 µM
KMT9 [2]
  ΔTm at 500 µM: ≤ 10 °C
KMT9 [3]
  IC50: > 10 µM

## CNc1ncnc2c1ccn2[C@@H]1C[C@H](CN2CCC23CCNC3)[C@@H](O)[C@H]1O (stereo partly drawn) [446 (318), (1S,2R,3R,5R)-3-{1,6-Diazaspiro[3.4]octan-1-ylmethyl}-5-[4-(methylamino)pyrrolo[2,3-d]pyrimidin-7-yl]cyclopentane-1,2-diol]
KMT9 [1]
  Kd: > 1 µM
KMT9 [2]
  ΔTm at 500 µM: ≤ 10 °C
KMT9 [3]
  IC50: > 10 µM

## CNc1ncnc2c1ccn2[C@@H]1C[C@H](CN2CCC23CCCNC3)[C@@H](O)[C@H]1O (stereo partly drawn) [447 (319), (1S,2R,3R,5R)-3-{1,6-Diazaspiro[3.5]nonan-1-ylmethyl}-5-[4-(methylamino)pyrrolo[2,3-d]pyrimidin-7-yl]cyclopentane-1,2-diol]
KMT9 [1]
  Kd: > 1 µM
KMT9 [2]
  ΔTm at 500 µM: ≤ 10 °C
KMT9 [3]
  IC50: > 10 µM

## CNc1ncnc2c1ccn2[C@@H]1C[C@H](CN2CCCCC23CCNC3)[C@@H](O)[C@H]1O (stereo partly drawn) [448 (320), (1S,2R,3R,5R)-3-{2,6-diazaspiro[4.5]decan-6-ylmethyl}-5-[4-(methylamino)pyrrolo[2,3-d]pyrimidin-7-yl]cyclopentane-1,2-diol]
KMT9 [1]
  Kd: > 1 µM
KMT9 [2]
  ΔTm at 500 µM: ≤ 10 °C
KMT9 [3]
  IC50: > 10 µM

## CNc1ncnc2c1ccn2[C@@H]1C[C@H](CN2CCCC23CCNCC3)[C@@H](O)[C@H]1O [451 (323), (1S,2R,3R,5R)-3-((1,8-Diazaspiro[4.5]decan-1-yl)methyl)-5-(4-(methylamino)-7H-pyrrolo[2,3-d]pyrimidin-7-yl) cyclopentane-1,2-diol]
KMT9 [1]
  Kd: > 1 µM
KMT9 [2]
  ΔTm at 500 µM: ≤ 10 °C
KMT9 [3]
  IC50: > 10 µM

## Nc1ncnc2c1c(Br)cn2[C@@H]1C[C@H](C(=O)NCCCNCCc2ccccc2)[C@@H](O)[C@H]1O [452 (324), (1S,2R,3S,4R)-4-(4-Amino-5-bromo-7H-pyrrolo[2,3-d]pyrimidin-7-yl)-2,3-dihydroxy-N-(3-(phenethylamino)propyl) cyclopentane-1-carboxamide]
KMT9 [1]
  Kd: 0.01 to 0.1 µM
KMT9 [2]
  ΔTm at 500 µM: 15 to 20 °C
KMT9 [3]
  IC50: 0.1 to 1 µM

## Nc1ncnc2c1c(Br)cn2[C@@H]1C[C@H](C(=O)NC[C@H]2CCCNC2)[C@@H](O)[C@H]1O [453 (325), (1S,2R,3S,4R)-4-(4-Amino-5-bromo-7H-pyrrolo[2,3-d]pyrimidin-7-yl)-2,3-dihydroxy-N-(((S)-piperidin-3-yl)methyl) cyclopentane-1-carboxamide]
KMT9 [1]
  Kd: 0.1 to 1 µM
KMT9 [2]
  ΔTm at 500 µM: 10 to 15 °C
KMT9 [3]
  IC50: > 10 µM

## Nc1ncnc2c1c(Br)cn2[C@@H]1C[C@H](C(=O)NC[C@@H]2CCCNC2)[C@@H](O)[C@H]1O [454 (326), (1S,2R,3S,4R)-4-(4-Amino-5-bromo-7H-pyrrolo[2,3-d]pyrimidin-7-yl)-2,3-dihydroxy-N-(((R)-piperidin-3-yl)methyl) cyclopentane-1-carboxamide]
KMT9 [1]
  Kd: 0.1 to 1 µM
KMT9 [2]
  ΔTm at 500 µM: 10 to 15 °C
KMT9 [3]
  IC50: > 10 µM

## Nc1ncnc2c1c(Br)cn2[C@@H]1C[C@H](CNC[C@H]2CCCNC2)[C@@H](O)[C@H]1O [455 (327), (1R,2S,3R,5R)-3-(4-Amino-5-bromo-7H-pyrrolo[2,3-d]pyrimidin-7-yl)-5-(((((S)-piperidin-3-yl)methyl)amino)methyl)cyclopentane-1,2-diol]
KMT9 [1]
  Kd: > 1 µM
KMT9 [2]
  ΔTm at 500 µM: 10 to 15 °C
KMT9 [3]
  IC50: > 10 µM

## Nc1ncnc2c1c(Br)cn2[C@@H]1C[C@H](CNC[C@@H]2CCCNC2)[C@@H](O)[C@H]1O [456 (328), (1R,2S,3R,5R)-3-(4-Amino-5-bromo-7H-pyrrolo[2,3-d]pyrimidin-7-yl)-5-(((((R)-piperidin-3-yl)methyl)amino)methyl) cyclopentane-1,2-diol]
KMT9 [1]
  Kd: > 1 µM
KMT9 [2]
  ΔTm at 500 µM: 10 to 15 °C
KMT9 [3]
  IC50: > 10 µM

## Nc1ncnc2c1c(Br)cn2[C@@H]1C[C@H](CNCCCNCCc2cccc(Oc3ccccc3)c2)[C@@H](O)[C@H]1O [457 (329)]
KMT9 [1]
  Kd: 0.01 to 0.1 µM
KMT9 [2]
  ΔTm at 500 µM: 15 to 20 °C
KMT9 [3]
  IC50: 0.1 to 1 µM

## CNc1ncnc2c1c(Br)cn2[C@@H]1C[C@H](CNCCCNCCc2cccc(Oc3ccccc3)c2)[C@@H](O)[C@H]1O [458 (330), (1R,2S,3R,5R)-3-(5-Bromo-4-(methylamino)-7H-pyrrolo[2,3-d]pyrimidin-7-yl)-5-(((3-((3-phenoxyphenethyl)amino)propyl)amino)methyl) cyclopentane-1,2-diol]
KMT9 [1]
  Kd: > 1 µM
KMT9 [2]
  ΔTm at 500 µM: ≤ 10 °C
KMT9 [3]
  IC50: > 10 µM

## CCc1cn([C@@H]2C[C@H](CNCCCNCCc3cccc(Oc4ccccc4)c3)[C@@H](O)[C@H]2O)c2ncnc(N)c12 [459 (332), (1R,2S,3R,5R)-3-(4-Amino-5-ethyl-7H-pyrrolo[2,3-d]pyrimidin-7-yl)-5-(((3-((3-phenoxyphenethyl)amino)propyl)amino)methyl) cyclopentane-1,2-diol]
KMT9 [1]
  Kd: 0.01 to 0.1 µM
KMT9 [2]
  ΔTm at 500 µM: 15 to 20 °C
KMT9 [3]
  IC50: 1 to 10 µM

## Nc1ncnc2c1c(C1CC1)cn2[C@@H]1C[C@H](CNCCCNCCc2cccc(Oc3ccccc3)c2)[C@@H](O)[C@H]1O [460 (333), (1R,2S,3R,5R)-3-(4-Amino-5-cyclopropyl-7H-pyrrolo[2,3-d]pyrimidin-7-yl)-5-(((3-((3-phenoxyphenethyl)amino)propyl)amino)methyl) cyclopentane-1,2-diol]
KMT9 [1]
  Kd: 0.01 to 0.1 µM
KMT9 [2]
  ΔTm at 500 µM: 15 to 20 °C
KMT9 [3]
  IC50: 0.1 to 1 µM

## Nc1ncnc2c1c(-c1ccccc1)cn2[C@@H]1C[C@H](CNCCCNCCc2cccc(Oc3ccccc3)c2)[C@@H](O)[C@H]1O [461 (334), (1R,2S,3R,5R)-3-(4-Amino-5-phenyl-7H-pyrrolo[2,3-d]pyrimidin-7-yl)-5-(((3-((3-phenoxyphenethyl)amino)propyl)amino)methyl) cyclopentane-1,2-diol]
KMT9 [1]
  Kd: 0.1 to 1 µM
KMT9 [2]
  ΔTm at 500 µM: 15 to 20 °C
KMT9 [3]
  IC50: 0.1 to 1 µM

## C=Cc1cn([C@@H]2C[C@H](CNCCCNCCc3cccc(Oc4ccccc4)c3)[C@@H](O)[C@H]2O)c2ncnc(N)c12 [462 (336), (1R,2S,3R,5R)-3-{4-Amino-5-ethenylpyrrolo[2,3-d]pyrimidin-7-yl}-5-{[(3-{[2-(3-phenoxyphenyl)ethyl]amino}propyl)amino]methyl}cyclopentane-1,2-diol]
KMT9 [1]
  Kd: 0.01 to 0.1 µM
KMT9 [2]
  ΔTm at 500 µM: 15 to 20 °C
KMT9 [3]
  IC50: 1 to 10 µM
